The target in the test is PAS domain-containing serine/threonine-protein kinase (Homo sapiens, UniProt Q96RG2). Put plainly: Inhibition of purified human PASK kinase domain expressed in insect cells incubated for 10 mins using MBP protein by kinase-Glo luminescent kinase assay. (In Kinase-Glo more light means more ATP remaining.)
Chain of PAS domain-containing serine/threonine-protein kinase (Q96RG2 whole entry, the tested form may be a part): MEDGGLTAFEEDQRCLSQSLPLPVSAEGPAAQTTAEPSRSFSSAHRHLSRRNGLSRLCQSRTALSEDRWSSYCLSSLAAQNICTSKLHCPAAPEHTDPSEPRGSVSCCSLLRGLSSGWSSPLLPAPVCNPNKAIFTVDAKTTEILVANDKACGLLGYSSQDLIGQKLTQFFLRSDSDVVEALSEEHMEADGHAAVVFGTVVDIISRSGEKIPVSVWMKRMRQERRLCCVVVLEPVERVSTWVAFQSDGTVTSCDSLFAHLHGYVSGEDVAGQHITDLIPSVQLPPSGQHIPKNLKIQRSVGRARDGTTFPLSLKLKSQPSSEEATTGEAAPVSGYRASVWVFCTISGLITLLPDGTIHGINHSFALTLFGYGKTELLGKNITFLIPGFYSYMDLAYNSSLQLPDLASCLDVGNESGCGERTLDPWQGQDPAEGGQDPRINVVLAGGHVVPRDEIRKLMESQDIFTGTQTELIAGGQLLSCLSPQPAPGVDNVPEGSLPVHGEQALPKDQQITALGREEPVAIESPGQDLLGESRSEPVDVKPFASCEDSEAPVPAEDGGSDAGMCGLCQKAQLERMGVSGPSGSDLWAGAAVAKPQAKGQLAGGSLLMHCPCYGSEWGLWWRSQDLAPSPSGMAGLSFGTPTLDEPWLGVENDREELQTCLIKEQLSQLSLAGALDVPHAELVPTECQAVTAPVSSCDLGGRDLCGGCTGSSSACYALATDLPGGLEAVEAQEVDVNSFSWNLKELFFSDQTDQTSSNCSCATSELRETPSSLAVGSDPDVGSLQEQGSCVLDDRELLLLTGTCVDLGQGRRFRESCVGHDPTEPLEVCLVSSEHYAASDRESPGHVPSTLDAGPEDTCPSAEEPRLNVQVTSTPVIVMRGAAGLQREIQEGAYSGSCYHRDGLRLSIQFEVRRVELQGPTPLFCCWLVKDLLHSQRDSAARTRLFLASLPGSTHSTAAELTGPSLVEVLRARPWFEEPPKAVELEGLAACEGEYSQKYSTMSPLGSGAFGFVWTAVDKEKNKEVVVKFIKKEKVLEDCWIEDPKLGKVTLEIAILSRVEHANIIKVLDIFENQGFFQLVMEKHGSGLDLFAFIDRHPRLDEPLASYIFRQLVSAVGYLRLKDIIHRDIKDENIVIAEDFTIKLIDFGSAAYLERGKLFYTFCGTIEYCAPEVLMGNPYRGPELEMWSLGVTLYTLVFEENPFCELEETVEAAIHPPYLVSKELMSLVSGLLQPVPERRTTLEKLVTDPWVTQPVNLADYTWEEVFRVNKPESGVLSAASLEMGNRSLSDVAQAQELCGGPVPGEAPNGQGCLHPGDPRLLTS

Consider `O=c1cc(-c2ccc3c(c2)OCO3)[nH]c2c(-c3ccccn3)cnn12`, for which the IC50 (as a rule, the concentration that gives 50% inhibition) is no more than 10 µM.

The values above are taken from ChEMBL document CHEMBL4476863, “Heterocyclic compounds for the inhibition of pask” (2012).
